From US20240398784A1, “C-LINKED ISOQUINOLINE AMIDES AS LRRK2 INHIBITORS, PHARMACEUTICAL COMPOSITIONS, AND USES THEREOF” (Merck Sharp & Dohme LLC, priority 2021, published 2024) come the findings set out here.

The target in the experiment is LRRK2 G2019S (Homo sapiens, UniProt Q5S007, G2019S). Nature of the experiment: LRRK2 G2019S Km ATP LanthaScreen assay. The class given is biochemical. To be noted: read-out: LRRK2 pIC50 (converted). In general terms: Time-resolved FRET reads energy transfer from a long-lived donor to a nearby acceptor.
LRRK2 G2019S, sequence (Q5S007 whole entry G2019S): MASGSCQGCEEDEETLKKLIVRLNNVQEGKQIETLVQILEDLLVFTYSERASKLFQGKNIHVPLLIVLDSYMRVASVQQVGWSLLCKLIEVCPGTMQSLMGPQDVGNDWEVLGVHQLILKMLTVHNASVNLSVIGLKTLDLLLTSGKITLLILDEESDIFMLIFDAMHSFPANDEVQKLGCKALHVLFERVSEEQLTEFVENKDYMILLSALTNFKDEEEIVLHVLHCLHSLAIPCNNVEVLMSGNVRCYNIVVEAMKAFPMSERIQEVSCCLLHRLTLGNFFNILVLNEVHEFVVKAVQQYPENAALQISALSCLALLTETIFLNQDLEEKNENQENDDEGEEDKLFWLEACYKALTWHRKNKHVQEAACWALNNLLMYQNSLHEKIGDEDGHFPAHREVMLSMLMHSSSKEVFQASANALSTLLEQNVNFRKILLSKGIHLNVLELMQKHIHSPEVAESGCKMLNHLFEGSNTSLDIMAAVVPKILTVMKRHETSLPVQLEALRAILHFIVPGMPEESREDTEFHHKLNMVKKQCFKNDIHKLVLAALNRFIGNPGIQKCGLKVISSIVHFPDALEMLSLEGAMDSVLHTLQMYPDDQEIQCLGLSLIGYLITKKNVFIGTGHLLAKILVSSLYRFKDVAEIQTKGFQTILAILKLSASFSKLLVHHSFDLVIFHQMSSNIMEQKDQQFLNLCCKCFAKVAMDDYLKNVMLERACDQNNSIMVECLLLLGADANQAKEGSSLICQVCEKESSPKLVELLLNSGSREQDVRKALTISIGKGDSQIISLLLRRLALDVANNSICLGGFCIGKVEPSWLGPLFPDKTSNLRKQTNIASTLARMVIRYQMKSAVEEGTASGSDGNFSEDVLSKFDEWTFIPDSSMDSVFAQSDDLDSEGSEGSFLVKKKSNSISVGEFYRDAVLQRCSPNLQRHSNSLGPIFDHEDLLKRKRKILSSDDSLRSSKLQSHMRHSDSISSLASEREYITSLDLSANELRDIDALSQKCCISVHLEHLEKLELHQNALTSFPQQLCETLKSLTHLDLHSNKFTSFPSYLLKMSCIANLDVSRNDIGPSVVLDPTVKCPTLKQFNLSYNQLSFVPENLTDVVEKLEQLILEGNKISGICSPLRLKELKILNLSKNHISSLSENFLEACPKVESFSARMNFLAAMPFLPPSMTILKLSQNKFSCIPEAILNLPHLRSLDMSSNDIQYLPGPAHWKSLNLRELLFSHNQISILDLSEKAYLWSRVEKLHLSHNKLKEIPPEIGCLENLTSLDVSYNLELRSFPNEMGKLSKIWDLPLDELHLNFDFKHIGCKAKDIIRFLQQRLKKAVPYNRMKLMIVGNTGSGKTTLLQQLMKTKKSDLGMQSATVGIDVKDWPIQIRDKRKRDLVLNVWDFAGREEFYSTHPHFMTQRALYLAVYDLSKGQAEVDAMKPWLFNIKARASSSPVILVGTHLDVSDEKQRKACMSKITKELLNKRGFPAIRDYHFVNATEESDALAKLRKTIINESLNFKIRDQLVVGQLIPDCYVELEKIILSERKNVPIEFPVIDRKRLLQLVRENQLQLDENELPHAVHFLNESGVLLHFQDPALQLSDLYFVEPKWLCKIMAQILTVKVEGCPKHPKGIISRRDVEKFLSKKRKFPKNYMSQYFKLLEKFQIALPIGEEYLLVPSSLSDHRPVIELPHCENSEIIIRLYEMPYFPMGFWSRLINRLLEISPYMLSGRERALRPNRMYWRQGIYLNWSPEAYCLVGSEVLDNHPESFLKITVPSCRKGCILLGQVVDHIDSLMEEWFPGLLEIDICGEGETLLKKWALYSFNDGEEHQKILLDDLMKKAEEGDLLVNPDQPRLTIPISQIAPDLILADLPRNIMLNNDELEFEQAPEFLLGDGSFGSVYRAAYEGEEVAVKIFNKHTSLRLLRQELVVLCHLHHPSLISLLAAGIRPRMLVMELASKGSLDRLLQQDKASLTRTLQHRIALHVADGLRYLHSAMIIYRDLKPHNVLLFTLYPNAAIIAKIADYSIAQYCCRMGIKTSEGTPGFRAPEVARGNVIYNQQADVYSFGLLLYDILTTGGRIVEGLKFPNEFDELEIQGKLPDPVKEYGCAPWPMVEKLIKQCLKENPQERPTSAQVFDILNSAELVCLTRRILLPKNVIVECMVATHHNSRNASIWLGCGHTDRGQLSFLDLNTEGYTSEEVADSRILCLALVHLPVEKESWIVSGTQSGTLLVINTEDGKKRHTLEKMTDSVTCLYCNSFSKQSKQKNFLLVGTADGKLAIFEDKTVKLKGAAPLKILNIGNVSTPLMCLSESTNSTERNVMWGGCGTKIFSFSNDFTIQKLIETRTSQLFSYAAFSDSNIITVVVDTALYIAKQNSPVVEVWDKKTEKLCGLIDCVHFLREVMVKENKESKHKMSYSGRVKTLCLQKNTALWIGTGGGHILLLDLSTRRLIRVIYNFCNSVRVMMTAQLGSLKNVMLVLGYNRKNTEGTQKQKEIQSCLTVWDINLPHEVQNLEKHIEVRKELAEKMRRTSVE

On to `CC(C)(F)C1CC1C(=O)Nc1cc2cc(C3CCN(C4(C)COCC4O)CC3)c(Cl)cc2cn1` (single isomer, unassigned) [Ex-4.48, N-(7-chloro-6-(1-(4-hydroxy-3-methyltetrahydrofuran-3-yl)piperidin-4-yl)isoquinolin-3-yl)-2-(2-fluoropropan-2-yl)cyclopropane-1-carboxamide], for which the IC50 was 1.26 nM.
In the case of `N#CC1(c2ccc3cnc(NC(=O)Cc4cccnc4)cc3c2)CC12CC2` (single isomer, unassigned) [Ex-1.41, (R or S)-N-(6-(1-cyanospiro[2.2]pentan-1-yl)isoquinolin-3-yl)-2-(pyridin-3-yl)acetamide] it was 0.708 nM; in that of `CC1CC1(C#N)c1ccc2cnc(NC(=O)C3CC3)cc2c1` (single isomer, unassigned) [Ex-18.7, (R or S)-N-(6-(1-cyano-2-methylcyclopropyl)isoquinolin-3-yl)cyclopropanecarboxamide], 4.57 nM.
In the case of `N#CC1(c2ccc3cnc(NC(=O)C4CC4c4ccccn4)cc3c2)CC12CC2` (stereo not drawn) [Ex-2.40] it was 0.575 nM.
The same measure for `O=C(Nc1cc2cc(C3CCC(N4CC(F)C4)CC3)c(Cl)cc2cn1)C1CC12CCOCC2` (single isomer, unassigned) [Ex-11.6, N-(7-chloro-6-(4-(3-fluoroazetidin-1-yl)cyclohexyl)isoquinolin-3-yl)-6-oxaspiro[2.5]octane-1-carboxamide]: 3.8 nM.
Consider `CCOC1CC1C(=O)Nc1cc2cc(C3CCN(C4(C)COCC4O)CC3)c(Cl)cc2cn1` (stereo not drawn) [Ex-2.10], for which the IC50 was 1.15 nM.
As to `CC1(N2CCC(c3cc4cc(NC(=O)c5cnn(C67CC(C6)C7)c5)ncc4cc3Cl)CC2)COCC1O` (single isomer, unassigned) [Ex-1.52, 1-(bicyclo[1.1.1]pentan-1-yl)-N-(7-chloro-6-(1-((3R,4R or 3S,4S)-4-hydroxy-3-methyltetrahydrofuran-3-yl)piperidin-4-yl)isoquinolin-3-yl)-1H-pyrazole-4-carboxamide], the IC50 is 1.62 nM.
Regarding `CC1(N2CCC(c3cc4cc(NC(=O)C5CC5C5CCOCC5)ncc4cc3Cl)CC2)COCC1O` (single isomer, unassigned) [Ex-4.67, N-(7-chloro-6-(1-(4-hydroxy-3-methyltetrahydrofuran-3-yl)piperidin-4-yl)isoquinolin-3-yl)-2-(tetrahydro-2H-pyran-4-yl)cyclopropane-1-carboxamide], the IC50 is 0.0813 nM.
Take `CC1(C)CC(C(=O)Nc2cc3cc(C4CCC(N5CCC(F)C5)CC4)c(Cl)cc3cn2)CCO1` (single isomer, unassigned) [Ex-5.12, N-(7-chloro-6-(4-(3-fluoropyrrolidin-1-yl)cyclohexyl)isoquinolin-3-yl)-2,2-dimethyltetrahydro-2H-pyran-4-carboxamid]: the IC50 was 2.24 nM.
For `CCC1C(C(=O)Nc2cc3cc(C4(C#N)CC45CC5)ccc3cn2)C1c1cnn(C)c1` (single isomer, unassigned) [Ex-1.25, (1R,3R or 1S,3S)-N-(6-((R or S)-1-cyanospiro[2.2]pentan-1-yl)isoquinolin-3-yl)-2-ethyl-3-(1-methyl-1H-pyrazol-4-yl)cyclopropane-1-carboxamide], the IC50 was 0.661 nM.
As to `CC1(N2CCC(c3cc4cc(NC(=O)C5CCC6(CCC6)OC5)ncc4cc3Cl)CC2)COCC1O` (single isomer, unassigned) [Ex-4.24, N-(7-chloro-6-(1-(4-hydroxy-3-methyltetrahydrofuran-3-yl)piperidin-4-yl)isoquinolin-3-yl)-5-oxaspiro[3.5]nonane-7-carboxamide], the IC50 is 0.692 nM.
The same measure for `CC1(N2CCC(c3cc4cc(NC(=O)C5CC5c5ccccn5)ncc4cc3F)CC2)COCC1O` (single isomer, unassigned) [Ex-8.4, N-(7-fluoro-6-(1-(4-hydroxy-3-methyltetrahydrofuran-3-yl)piperidin-4-yl)isoquinolin-3-yl)-2-(pyridin-2-yl)cyclopropane-1-carboxamide]: 0.0813 nM.
